Measurements from US12025612B2, “Brown adipocyte progenitors in human skeletal muscle” (Energesis Pharmaceuticals, Inc., priority 2008, dated 2024).

Legend:
[1] = test system: UCP1 mRNA expression in human skeletal muscle; assay: UCP1 mRNA expression in vastus lateralis muscle biopsies of obese type 2 diabetic patients before and after rosiglitazone, quantitative RT-PCR; assay type: in vivo; conditions: for UCP1 mRNA level after treatment (Rosi), normalized to cyclophilin A: after 8 weeks
Protocol: Since the PPARγ agonist rosiglitazone was a strong inducer of UCP1 mRNA expression in muscle CD34+ cells in culture, the effect of this compound in vivo in humans was investigated. Vastus lateralis muscle biopsies from 7 obese patients with type 2 diabetes mellitus treated for the management of their metabolic syndrome with rosiglitazone were used. The biopsies were obtained before and after 8 weeks of treatment with rosiglitazone (2×4 mg per day). […] In that study rosiglitazone, concomitantly with the improvement in insulin sensitivity, increased the level of expression of UCP1 in muscle by about 1.6-fold. […] The results are the means±s.e.m. of arbitrary values normalized using the corresponding cyclophilin A values (n=7, *p<0.05 vs. control).
In FIG. 5, showing UCP1 mRNA levels in skeletal muscle biopsies from a patient group (n=7), “control” corresponds to levels before treatment, and “Rosi” corresponds to levels after treatment (8 weeks) with rosiglitazone. Being a longitudinal study the effect of rosiglitazone on UCP1 levels in each individual (comparison of individual values for the “control”-before and “Rosi”-after conditions) were determined. Starting with 25 ng cDNA (produced by reverse transcription of RNA) the threshold of detection (Ct) during real-time PCR was about 22 for UCP1 and about 18 for cyclophilin.
Human fetal tissues were obtained anonymously, following spontaneous, voluntary or therapeutic terminations of pregnancy, from Magee Women Hospital, University of Pittsburgh, in compliance with the Institutional Review Board protocol. Developmental age (16 to 24 weeks of gestation) was estimated by measuring foot length. Informed consent to the use of fetal tissues was obtained from the patients in all instances. Adult human discarded abdominal subcutaneous WAT, originating from 45-55 year old patients undergoing plastic surgery performed one year after gastric bypass, was kindly provided by Dr Peter Rubin (Division of Plastic Surgery, University of Pittsburgh). The adult skeletal muscle tissue used for cell sorting was obtained post mortem from 50-78 year-old donors. The adult skeletal muscle used for the first group of RT-PCR studies was obtained from the rectus abdominus during surgery for either lap banding, inguinal hernia or hysterectomy of 10 lean male and female subjects. All subjects agreed to donate muscle samples during their operations and the protocol was approved by the Medical Ethical Review Committee of Deakin University. The average ages were 45±3 years and the average body mass index was 22.2±0.8. The adult skeletal muscle used for the second group of RT-PCR studies was obtained from the vastus lateralis of 7 obese type 2 diabetic male and female patients before and after 8 weeks of treatment with rosiglitazone (2×4 mg per day). The average age was 63±4 years and the average body mass index was […]. The complete clinical profile of the patients has been described in a previous publication. All subjects agreed to donate muscle samples, and the protocol was approved by the Medical Ethical Review Committee of Maastricht University.
Total cell RNA was prepared using the kit NucleoSpin® RNAII (Clontech, Palo Alto, Calif.) or Extract-all solution (Eurobio, Courtaboeuf, France) and quantified by Biophotometry (Biophotometer, Eppendor). Oligo-dT primed First strand cDNA were synthesized using the Superscript™ II RNase H Reverse Transcription kit (Invitrogen, Carlsbad, Calif.) and oligo-dT primers or the High Capacity cDNA Reverse Transcription kit (Applied Biosystems, Foster City, Calif.) and random primers. Quantitative real-time PCR was performed using ABI rapid thermal cycler system, and a SYBR Green PCR master mix (Applied Biosystems, Foster City, Calif.). Cyclophilin A was used as a control to account for any variations due to the efficiency of the reverse transcription. […]

[2] = test system: UCP1 mRNA expression in fetal muscle CD34+ cells; assay: UCP1 mRNA expression in cultured fetal muscle CD34+ cells, quantitative RT-PCR normalized to cyclophilin A; assay type: cell-based, human; conditions: rosiglitazone 1 μM
Protocol: UCP1 mRNA expression in fetal muscle CD34+ cells could be modulated by drug treatment. Cell-permeating cAMP derivatives strongly stimulated (7 to 8-fold) UCP1 mRNA expression in both primary cultured and expanded cells. The effects of cAMP derivatives, 8-bromo-cAMP, 0.25 mM or (4-chlorophenylthio)-cAMP, 0.25 mM (cAMP) on UCP1 mRNA expression in CD34+ cells in primary culture (PC) or expanded up to passage 3 (P3) are shown in FIG. 3B. All the cells were grown for 4-6 days in EGM2 medium and then placed for 8-12 days in the adipogenic medium described under Materials and Methods. The results are means±s.e.m. of arbitrary values normalized using the corresponding cyclophilin A values. They are expressed in % of their respective untreated (control) values considered as 100% (*p<0.05, n=3-6).
Rosiglitazone, a PPARγ agonist, had no effect in primary culture cells but strongly stimulated (8-fold) UCP1 mRNA expression in expanded cells. The results are expressed as in FIG. 3B (**p<0.01, n=4-7). […]
Total cell RNA was prepared using the kit NucleoSpin® RNAII (Clontech, Palo Alto, Calif.) or Extract-all solution (Eurobio, Courtaboeuf, France) and quantified by Biophotometry (Biophotometer, Eppendor). […] Quantitative real-time PCR was performed using ABI rapid thermal cycler system, and a SYBR Green PCR master mix (Applied Biosystems, Foster City, Calif.). […]

Structure (SMILES): CN(CCOc1ccc(CC2SC(=O)NC2=O)cc1)c1ccccn1 (centres unmarked) [rosiglitazone]
- increase of the level of expression of UCP1 in muscle ([1]; 7 obese type 2 diabetic patients, 8 weeks, 2×4 mg per day, after vs before treatment, mean): about 1.6 fold
- UCP1 level at end of treatment in % of before treatment ([1]; Patient 1, 8 weeks): 150%
- UCP1 level increase, end of treatment vs. before ([1]; Patient 1, 8 weeks): 50%
- UCP1 mRNA level after treatment (Rosi), normalized to cyclophilin A ([1]; Patient 1): 652 arbitrary units
- UCP1 level at end of treatment in % of before treatment ([1]; Patient 2, 8 weeks): 100%
- UCP1 mRNA level after treatment (Rosi), normalized to cyclophilin A ([1]; Patient 2): 453 arbitrary units
- UCP1 level at end of treatment in % of before treatment ([1]; Patient 3, 8 weeks): 180%
- UCP1 level increase, end of treatment vs. before ([1]; Patient 3, 8 weeks): 80%
- UCP1 mRNA level after treatment (Rosi), normalized to cyclophilin A ([1]; Patient 3): 677 arbitrary units
- UCP1 level at end of treatment in % of before treatment ([1]; Patient 4, 8 weeks): 280%
- UCP1 level increase, end of treatment vs. before ([1]; Patient 4, 8 weeks): 180%
- UCP1 mRNA level after treatment (Rosi), normalized to cyclophilin A ([1]; Patient 4): 730 arbitrary units
- UCP1 level at end of treatment in % of before treatment ([1]; Patient 5, 8 weeks): 108%
- UCP1 level increase, end of treatment vs. before ([1]; Patient 5, 8 weeks): 8%
- UCP1 mRNA level after treatment (Rosi), normalized to cyclophilin A ([1]; Patient 5): 600 arbitrary units
- UCP1 level at end of treatment in % of before treatment ([1]; Patient 6, 8 weeks): 410%
- UCP1 level increase, end of treatment vs. before ([1]; Patient 6, 8 weeks): 310%
- UCP1 mRNA level after treatment (Rosi), normalized to cyclophilin A ([1]; Patient 6): 556 arbitrary units
- UCP1 level at end of treatment in % of before treatment ([1]; Patient 7, 8 weeks): 110%
- UCP1 level increase, end of treatment vs. before ([1]; Patient 7, 8 weeks): 10%
- UCP1 mRNA level after treatment (Rosi), normalized to cyclophilin A ([1]; Patient 7): 142 arbitrary units
- stimulation of UCP1 mRNA expression ([2]; CD34+ cells expanded up to passage 3 (P3)): 8 fold
- effect on UCP1 mRNA expression ([2]; CD34+ cells in primary culture (PC)): no effect
